According to ChEMBL document CHEMBL4477222, “Discovery of Novel Thiophene-Based, Thumb Pocket 2 Allosteric Inhibitors of the Hepatitis C NS5B Polymerase with Improved Potency and Physicochemical Profiles” (J Med Chem, 2016):
The source made the active and inactive calls. The rule behind the calls is not given here.

Legend:
[1] = Protein binding in monkey plasma at 1 uM; type: ADME, cell-free, Macaca mulatta; settings: rhesus monkey, read-out: PPB (converted)
[2] = system: NS3 protease (Hepacivirus C), C1KIQ2 [A156T]; assay: Inhibition of telaprevir-resistant HCV NS3 protease A156T mutant; settings: Hepacivirus hominis
Sequence of NS3 protease (Hepacivirus C), C1KIQ2 [A156T] (C1KIQ2 entry or part of it A156T): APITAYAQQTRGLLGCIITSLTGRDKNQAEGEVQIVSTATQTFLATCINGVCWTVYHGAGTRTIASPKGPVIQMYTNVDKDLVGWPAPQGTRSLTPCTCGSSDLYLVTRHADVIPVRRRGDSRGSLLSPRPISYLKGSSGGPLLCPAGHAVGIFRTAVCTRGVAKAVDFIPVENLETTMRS

CC(C)(C)C#Cc1cc(N(CC(=O)N2CCOCC2)C(=O)[C@H]2CC[C@H](C)CC2)c(C(=O)O)s1
fraction unbound at 1 µM [1]: 0.023
inhibition [2]: Active
